Read-outs that look alike come from different tables or passages of the source.
What was measured:
[1] = biological target: T1, Apisum RDL1ad (Acyrthosiphon pisum, UniProt A0A385J708); experiment: Antagonistic actions of neonicotinoids on GABA-induced currents, two-electrode voltage-clamp in X. laevis oocytes; assay type: cell-based; conditions: for activity at 100 µM: read-out: % of GABA Response with 100 μM neonicotinoid
T1 sequence (A0A385J708 33-567): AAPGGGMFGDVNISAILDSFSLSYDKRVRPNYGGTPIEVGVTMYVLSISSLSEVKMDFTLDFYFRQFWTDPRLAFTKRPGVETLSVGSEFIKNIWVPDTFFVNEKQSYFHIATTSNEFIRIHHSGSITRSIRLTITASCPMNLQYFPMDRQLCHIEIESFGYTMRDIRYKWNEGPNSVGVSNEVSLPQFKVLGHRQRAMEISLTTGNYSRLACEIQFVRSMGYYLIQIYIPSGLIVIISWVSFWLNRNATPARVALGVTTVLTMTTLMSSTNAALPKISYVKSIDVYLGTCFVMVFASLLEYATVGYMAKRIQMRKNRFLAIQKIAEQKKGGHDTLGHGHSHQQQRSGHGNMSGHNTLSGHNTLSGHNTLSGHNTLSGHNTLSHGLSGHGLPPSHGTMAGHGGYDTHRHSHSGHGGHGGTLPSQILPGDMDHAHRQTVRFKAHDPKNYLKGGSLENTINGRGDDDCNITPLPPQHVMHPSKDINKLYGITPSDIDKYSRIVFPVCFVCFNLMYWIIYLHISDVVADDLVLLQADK
Procedure: (§1) Functional studies of Apisum RDL1ad, Apisum RDL1bd and Apisum RDL2b variant 1 were performed using the X. laevis expression system and two-electrode voltage-clamp electrophysiology. Stage V and VI X. laevis oocytes were harvested and rinsed with Ca^2+ free solution (82 mM NaCl, 2 mM KCl, 2 mM MgCl2, 5 mM HEPES, pH 7.4), before defolliculating with 1 mg/mL type IA collagenase (Sigma, St. Louis, MO, USA) in Ca^2+ free solution. Defolliculated oocytes were injected with 2.3 ng (23 nL) Apisum Rdl plasmid DNA into the nucleus of the oocyte and stored in standard Barth’s solution (supplemented with 50 µg/mL neomycin and 10 µg/mL penicillin/streptomycin) at 17.5 °C.
(§2) Oocytes 1–7 days post-injection were placed in a recording chamber and clamped at −60 mV with 3 M KCl filled borosilicate glass electrodes (resistance 0.5–5 MΩ) and an Oocyte Clamp OC-725C amplifier (Warner Instruments, CT, USA). Responses were recorded on a flatbed chart recorder (Kipp & Zonen BD-11E, Delft, The Netherlands). Oocytes were perfused with standard oocyte saline (SOS; 100 mM NaCl, 2 mM KCl, 1.8 mM CaCl2, 1 mM MgCl2, 5 mM HEPES, pH 7.6) at a flow rate of 10 mL/min. Oocytes were selected for experiments if stable after three or more consecutive challenges of GABA at EC50 concentration. The GABA EC50 concentration was determined using GABA concentration response curves, which were generated by challenging oocytes to increasing concentrations of GABA in SOS, with 3 min between challenges. Curves were calculated by normalising the GABA current responses to maximal responses induced by GABA before and after application.
(§3) Insecticides were initially diluted in dimethylsulphoxide (DMSO), before diluting to final concentrations in SOS.
(§4) For measuring the antagonistic actions of neonicotinoids, oocytes were initially incubated with a perfusion of the neonicotinoid in SOS for 6 min, before challenging with a combination of neonicotinoid and either the respective EC50 GABA concentration or 1 mM GABA.

[2] = biological target: T2, Apisum RDL1bd (Acyrthosiphon pisum, UniProt A0A385J708); experiment: as above; assay type: cell-based; conditions: for effect on responses induced by GABA: 100 μM neonicotinoid
T2 sequence (A0A385J708 33-567): T1 sequence (A0A385J708 33-567)
Procedure: as §1, §2, §3, §4

[3] = tested on: An. gambiae RDL; parameters: method as in PMID 26296809; conditions: 100 μM; expressed in Xenopus oocytes; cited from earlier work
[4] = tested on: A. mellifera RDL; parameters: method as in PMID 27288983; conditions: 100 μM; expressed in Xenopus oocytes; cited from earlier work
[5] = tested on: cultured honey bee Kenyon cells; parameters: method as in PMID 11872245; conditions: cited from earlier work
[6] = tested on: Apisum RDL2b var 1; experiment: Antagonistic actions of neonicotinoids on GABA-induced currents, two-electrode voltage-clamp in X. laevis oocytes; assay type: cell-based, Acyrthosiphon pisum
Procedure: as §1
as §2, with “The GABA EC50 concentration was determined using GABA concentration response curves, which were generated by challenging oocytes to increasing concentrations of GABA in SOS, with 3 min between challenges.” left out, “application. […]” for “application.”

[7] = biological target: T1, Apisum RDL1ad; experiment: Fipronil inhibition of GABA EC50 induced currents, two-electrode voltage-clamp in X. laevis oocytes; assay type: cell-based; conditions: GABA at EC50 (20 μM); 3 min pre-incubation; mean ± SEM
Procedure: as §1, §2
(§5) Insecticides were initially diluted in dimethylsulphoxide (DMSO), before diluting to final concentrations in SOS. […]
(§6) Data are presented as mean ± SEM of individual oocytes from three or more separate frogs. […] Statistical significance was determined as p < 0.05, performed using one-way ANOVA (Graphpad Software, CA, USA).

[8] = biological target: T2, Apisum RDL1bd; experiment: as above; assay type: cell-based; conditions: GABA at EC50 (50 μM); 3 min pre-incubation; mean ± SEM
Procedure: as §1, §2, §5, §6

[9] = biological target: T3, Apisum RDL2b variant 1 (Acyrthosiphon pisum, UniProt A0A385J709); experiment: as above; assay type: cell-based; conditions: GABA at EC50 (30 μM); 3 min pre-incubation; mean ± SEM
Procedure: as §1, §2, §5, §6

[10] = biological target: T1, Apisum RDL1ad; experiment: GABA concentration response, two-electrode voltage-clamp in X. laevis oocytes; assay type: cell-based
Procedure: as §1, §2
(§7) Data are presented as mean ± SEM of individual oocytes from three or more separate frogs. The concentration of GABA required to evoke 50% of the maximum response (EC50), the concentration of fipronil required to inhibit 50% of the maximal GABA response (IC50), and the Hill coefficient (nH) were determined by non-linear regression using Graphpad Prism 5 (Graphpad Software, CA, USA). Statistical significance was determined as p < 0.05, performed using one-way ANOVA (Graphpad Software, CA, USA).

[11] = biological target: T2, Apisum RDL1bd; experiment: as above; assay type: cell-based
Procedure: as §1, §2, §7

[12] = biological target: T3, Apisum RDL2b variant 1; experiment: as above; assay type: cell-based
Procedure: as §1, §2, §7

[13] = 100 μM neonicotinoid, GABA at 1 mM
[14] = 100 μM neonicotinoid, GABA at EC50 concentration
[15] = initial 250 μM GABA response, eggs clamped at −60 mV, mean ± SEM

O=[N+]([O-])NC1=NCCN1Cc1ccc(Cl)nc1 [IMI, imidacloprid]
effect on responses induced by GABA [1, 13]: no detectable effect | effect on responses induced by GABA [1, 14]: no detectable effect | activity at 100 µM ([1]; GABA at EC50, 100 μM neonicotinoid): 100% | effect on responses induced by GABA ([2]; GABA at 1 mM): no detectable effect | effect on responses induced by GABA ([2]; GABA at EC50 concentration): no detectable effect | % of GABA Response with 100 μM neonicotinoid ([2]; GABA at EC50): 100% | action on RDL [3]: acted as an antagonist | action on RDL [4]: acted as an antagonist | effect on GABA-induced responses [5]: reduce GABA-induced responses

N#C/N=C1\SCCN1Cc1ccc(Cl)nc1 [THI, thiacloprid]
% of GABA Response with 100 μM neonicotinoid ([2]; GABA at EC50, 100 µM): 55 ± 7% | % of GABA Response with 100 μM neonicotinoid ([2]; GABA at EC50, listed as thiacloprid, 100 µM): 55% | % of GABA Response with 100 μM neonicotinoid ([6]; GABA at EC50): 62 ± 2% | % of GABA Response with 100 μM neonicotinoid ([6]; GABA at EC50, listed as thiacloprid): 62%

CN/C(=N\[N+](=O)[O-])NCc1cnc(Cl)s1 [CLO, clothianidin]
effect on responses induced by GABA [1, 13]: no antagonistic actions | effect on responses induced by GABA [1, 14]: no antagonistic actions | activity at 100 µM [1]: 100% | effect on responses induced by GABA ([2]; GABA at 1 mM): no antagonistic actions | effect on responses induced by GABA ([2]; GABA at EC50 concentration): no antagonistic actions | % of GABA Response with 100 μM neonicotinoid ([2]; GABA at EC50): 100%

N#Cc1nn(-c2c(Cl)cc(C(F)(F)F)cc2Cl)c(N)c1[S+]([O-])C(F)(F)F (stereo not shown) [Fipronil, fipronil]
IC50 [7]: 640 ± 150 nM | IC50 [8]: 180 ± 60 nM | IC50 [9]: 720 ± 190 nM

NCCCC(=O)O [GABA, γ-aminobutyric acid]
Imax (maximum amplitude) [10, 15]: 1.6 ± 0.6 μA | EC50 ([10]; mean ± SEM of 4-5 oocytes): 23 ± 1.7 µM | GABA nH (hill coefficient) ([10]; mean ± SEM of 4-5 oocytes): 1.6 ± 0.1 | Imax (maximum amplitude) [11, 15]: 1.4 ± 1.3 μA | EC50 ([11]; mean ± SEM of 4-5 oocytes): 51 ± 9.2 µM | GABA nH (hill coefficient) ([11]; mean ± SEM of 4-5 oocytes): 2.0 ± 0.3 | Imax (maximum amplitude) [12, 15]: 1.4 ± 1.5 μA | EC50 ([12]; mean ± SEM of 4-5 oocytes): 28 ± 5.4 µM | GABA nH (hill coefficient) ([12]; mean ± SEM of 4-5 oocytes): 1.0 ± 0.1

— paper PMC6121307, “Cloning and Functional Characterisation of the Duplicated RDL Subunits from the Pea Aphid, Acyrthosiphon pisum” (International Journal of Molecular Sciences, 2018)
